In assay [1] the target is Muscarinic acetylcholine receptor M3 (Homo sapiens, UniProt P20309). As to the kind of experiment: Displacement of [3H]NMS from human muscarinic M3 receptor expressed in CHO-K1 cells after 1 hr by scintillation counting. In kind it is cell-based.
In assay [2] the test system is Cavia porcellus. The assay is described as follows: Inhibition of acetylcholine-induced bronchospasm in anesthetized Dunkin-Hartley guinea pig assessed as time required to recover 50% of maximum inhibitory effect at 3 mg/ml administered via nebulizer. In kind it is functional.
Assay [3] deals with Muscarinic acetylcholine receptor M1 and M3 (Homo sapiens) (UniProt P20309+P11229). As to the kind of experiment: Selectivity ratio of IC50 for human muscarinic M1 receptor to IC50 for human muscarinic M3 receptor.
Assay [4] deals with Muscarinic acetylcholine receptors; M2 & M3 (Homo sapiens) (UniProt P20309+P08172). The assay is described as follows: Selectivity ratio of IC50 for human muscarinic M2 receptor to IC50 for human muscarinic M3 receptor.
Assay [5] has as its target T1, Muscarinic acetylcholine receptor M2 (Homo sapiens, UniProt P08172).
T1 sequence (P08172 whole entry): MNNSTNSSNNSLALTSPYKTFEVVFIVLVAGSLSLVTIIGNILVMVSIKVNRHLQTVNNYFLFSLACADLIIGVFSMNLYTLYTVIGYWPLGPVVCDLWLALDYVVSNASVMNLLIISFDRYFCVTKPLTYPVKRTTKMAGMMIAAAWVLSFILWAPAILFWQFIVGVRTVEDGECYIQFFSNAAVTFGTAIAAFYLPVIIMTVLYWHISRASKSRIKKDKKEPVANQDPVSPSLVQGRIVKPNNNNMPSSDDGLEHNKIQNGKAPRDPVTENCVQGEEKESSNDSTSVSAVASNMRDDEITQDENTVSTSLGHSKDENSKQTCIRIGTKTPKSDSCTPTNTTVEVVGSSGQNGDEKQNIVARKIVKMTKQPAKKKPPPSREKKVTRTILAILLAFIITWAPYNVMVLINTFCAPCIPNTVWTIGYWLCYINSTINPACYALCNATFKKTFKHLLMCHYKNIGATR
As to the kind of experiment: Displacement of [3H]NMS from human muscarinic M2 receptor expressed in CHO-K1 cells after 1 hr by scintillation counting. The assay is classed as cell-based.

Assay [6] deals with T2, Muscarinic acetylcholine receptor M1 (Homo sapiens, UniProt P11229).
T2 sequence (P11229 whole entry): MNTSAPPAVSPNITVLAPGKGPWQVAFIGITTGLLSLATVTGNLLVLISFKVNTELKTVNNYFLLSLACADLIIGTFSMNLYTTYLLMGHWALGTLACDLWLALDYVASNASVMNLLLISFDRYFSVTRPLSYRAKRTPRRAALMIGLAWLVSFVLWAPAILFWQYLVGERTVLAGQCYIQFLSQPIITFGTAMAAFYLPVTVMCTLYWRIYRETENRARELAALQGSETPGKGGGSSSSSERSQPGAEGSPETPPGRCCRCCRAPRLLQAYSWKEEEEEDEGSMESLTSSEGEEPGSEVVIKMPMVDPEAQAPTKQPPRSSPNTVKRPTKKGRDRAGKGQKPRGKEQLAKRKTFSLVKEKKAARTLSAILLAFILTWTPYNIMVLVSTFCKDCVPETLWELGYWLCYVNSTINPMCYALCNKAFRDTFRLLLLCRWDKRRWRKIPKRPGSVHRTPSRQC
The assay is described as follows: Displacement of [3H]NMS from human muscarinic M1 receptor expressed in CHO-K1 cells after 1 hr by scintillation counting. The assay is classed as cell-based. In general terms: Displacement assays read how much labelled ligand stays bound in the presence of the test substance.

For assay [7], the system named is Cavia porcellus. As to the kind of experiment: Inhibition of acetylcholine-induced bronchospasm in anesthetized Dunkin-Hartley guinea pig assessed as time required to recover 50% of maximum inhibitory effect at 1 mg/ml administered via nebulizer. In kind it is functional.

As usually defined, the IC50 is the concentration that gives 50% inhibition. Lower therefore signals greater potency.

Muscarinic acetylcholine receptor M3, sequence (P20309 whole entry): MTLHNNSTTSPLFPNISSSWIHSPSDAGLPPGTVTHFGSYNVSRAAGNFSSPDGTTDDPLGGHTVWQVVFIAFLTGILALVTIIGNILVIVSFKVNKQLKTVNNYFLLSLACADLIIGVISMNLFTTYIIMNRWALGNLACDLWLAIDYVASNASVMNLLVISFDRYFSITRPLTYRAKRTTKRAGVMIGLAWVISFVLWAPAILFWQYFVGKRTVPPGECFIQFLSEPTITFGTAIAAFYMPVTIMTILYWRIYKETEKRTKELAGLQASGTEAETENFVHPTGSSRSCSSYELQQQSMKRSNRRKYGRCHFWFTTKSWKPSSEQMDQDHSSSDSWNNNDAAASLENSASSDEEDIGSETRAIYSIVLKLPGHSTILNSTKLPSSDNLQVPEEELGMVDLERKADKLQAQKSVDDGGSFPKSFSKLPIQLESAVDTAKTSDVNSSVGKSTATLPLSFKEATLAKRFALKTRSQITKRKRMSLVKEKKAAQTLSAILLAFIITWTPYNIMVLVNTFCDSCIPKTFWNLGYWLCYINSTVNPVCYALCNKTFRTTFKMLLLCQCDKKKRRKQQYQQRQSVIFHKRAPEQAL
Muscarinic acetylcholine receptors; M2 & M3 (Homo sapiens), sequence (P20309 whole entry, looked up, one chain of several): as the sequence (P20309 whole entry) above
Muscarinic acetylcholine receptor M1 and M3 (Homo sapiens), sequence (P20309 whole entry, looked up, one chain of several): as the sequence (P20309 whole entry) above

For the compound `O=C(O[C@H]1CN2CCC1CC2)N(Cc1ccccc1)c1ccccc1`, the figures for the IC50 in assay [1], in assay [5] and in assay [6] were 1.2 nM, 3.7 nM and 0.4 nM, respectively. Also, in the assay with Cavia porcellus [2], the Time was 1.5 h. Also, the Ratio IC50 in assay [3] came to 0.3; in assay [4], 3.1.
As for `O=C(O[C@H]1C[N+]2(CCOc3ccccc3)CCC1CC2)N(Cc1cc(F)c(F)c(F)c1)c1cccc(F)c1.[Br-]`, in the assay with Cavia porcellus [7], the Time was more than 6 h. Moreover, the figures for the half-inhibitory concentration (IC50) in assay [1], in assay [5] and in assay [6] were 0.6 nM, 14.4 nM and 1.1 nM, respectively. The Ratio IC50 in assay [3] came to 1.8; in assay [4] it was 24.
Take `O=C(O[C@H]1C[N+]2(CCc3ccccc3)CCC1CC2)N(Cc1ccccc1)c1ccccc1.[Br-]`: in the assay with Cavia porcellus [7], the Time is less than 2 h. The IC50 in assay [1] was 17.7 nM; in assay [5], 50.9 nM; in assay [6], 15.1 nM. Besides, the Ratio IC50 turned out to be 0.85 in assay [3] and 2.9 in assay [4].
In the case of `O=C(O[C@H]1C[N+]2(CCOc3ccccc3)CCC1CC2)N(Cc1ccsc1)c1ccccc1.[Br-]`, the Time in the assay with Cavia porcellus [7] is more than 6 h. The IC50 was found to be 0.2 nM in assay [1], 1.6 nM in assay [5] and 0.4 nM in assay [6]. Also, the figures for the Ratio IC50 in assay [3] and in assay [4] were 2 and 8, respectively.
Turning to `O=C(O[C@H]1C[N+]2(CCCc3cccs3)CCC1CC2)N(Cc1ccsc1)c1ccccc1.[Br-]`, the Time in the assay with Cavia porcellus [7] was more than 6 h. The IC50 in assay [1] was found to be 0.6 nM; in assay [5] it was 8.4 nM; in assay [6] it was 2 nM. The Ratio IC50 was found to be 3.3 in assay [3] and 14 in assay [4].
As to `CCCCN(C(=O)O[C@H]1C[N+]2(CCCc3cccs3)CCC1CC2)c1ccccc1.[Br-]`, the Time in the assay on Cavia porcellus [7] was more than 6 h. In addition, the IC50 was determined as 0.6 nM in assay [1], 10.9 nM in assay [5] and 2 nM in assay [6]. For the same compound, the Ratio IC50 in assay [3] came to 3.3; in assay [4] it was 18.2.
Consider `O=C(O[C@H]1CN2CCC1CC2)N(Cc1ccsc1)c1ccccc1`, for which, in the assay with Cavia porcellus [7], the Time is less than 4 h. Also, the IC50 was 1 nM in assay [1], 4.7 nM in assay [5] and 0.4 nM in assay [6]. Also, the Ratio IC50 in assay [3] came to 0.4; in assay [4], 4.7.
`CCCCN(C(=O)O[C@H]1C[N+]2(CCOc3ccccc3)CCC1CC2)c1ccccc1.[Br-]`: in the assay on Cavia porcellus [7], the Time was more than 6 h. Further, the IC50 in assay [1] came to 0.8 nM; in assay [5], 8.9 nM; in assay [6] it was 1.4 nM. Further, the Ratio IC50 worked out at 1.7 in assay [3] and 11.1 in assay [4].
On to `CCCCN(C(=O)O[C@H]1CN2CCC1CC2)c1ccccc1`, for which the Time in the assay with Cavia porcellus [7] is less than 1 h. Also, the IC50 in assay [1] is 4.3 nM; in assay [5] it was 22.9 nM; in assay [6], 1.1 nM. Besides, the Ratio IC50 in assay [3] amounted to 0.2; in assay [4], 5.3.
